Assay [1] has as its target T1, PTPN2 (HiBIT-PTPN2 in 293T.109 cells) (Homo sapiens, UniProt P17706).
T1 construct: expressed in transfected cells; host or cells: 293T.109 (293T WT from ATCC)
T1 sequence (P17706 1-415): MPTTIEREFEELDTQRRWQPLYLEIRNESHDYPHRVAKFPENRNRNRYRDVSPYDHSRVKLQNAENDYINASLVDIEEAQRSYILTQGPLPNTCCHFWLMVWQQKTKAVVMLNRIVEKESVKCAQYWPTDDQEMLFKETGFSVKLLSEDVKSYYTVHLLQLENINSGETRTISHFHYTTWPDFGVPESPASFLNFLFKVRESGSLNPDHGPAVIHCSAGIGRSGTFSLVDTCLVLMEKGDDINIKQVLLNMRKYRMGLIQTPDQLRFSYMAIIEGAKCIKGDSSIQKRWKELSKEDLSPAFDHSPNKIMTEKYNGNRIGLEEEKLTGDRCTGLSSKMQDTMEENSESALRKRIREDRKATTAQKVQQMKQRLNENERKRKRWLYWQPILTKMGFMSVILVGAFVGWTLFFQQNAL
Nature of the assay: HiBiT Degradation 293T.109 PTPN2 (Nano-Glo HiBiT Lytic Assay). It is filed as cell-based. The note with it: 24.0 hours. The procedure, abridged: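 Degradation read-out: lytic HiBiT luminescence after 24 h treatment (37 °C, 5% CO2) of 5000 293T cells per well expressing HiBiT-fused PTPN2 from an N-terminal tag. Dosing was 11 points, half-log steps down from 10 μM, in duplicate; vehicle-treated and no-reagent wells served as controls.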
In general terms: The HiBiT peptide binds its large partner to form an active luciferase.

A further assay addresses T2, PTPN2 (B16F10.4 cells) (Mus musculus, UniProt Q06180).
T2 construct: HiBiT; host or cells: B16F10.4
T2 sequence (Q06180 1-406): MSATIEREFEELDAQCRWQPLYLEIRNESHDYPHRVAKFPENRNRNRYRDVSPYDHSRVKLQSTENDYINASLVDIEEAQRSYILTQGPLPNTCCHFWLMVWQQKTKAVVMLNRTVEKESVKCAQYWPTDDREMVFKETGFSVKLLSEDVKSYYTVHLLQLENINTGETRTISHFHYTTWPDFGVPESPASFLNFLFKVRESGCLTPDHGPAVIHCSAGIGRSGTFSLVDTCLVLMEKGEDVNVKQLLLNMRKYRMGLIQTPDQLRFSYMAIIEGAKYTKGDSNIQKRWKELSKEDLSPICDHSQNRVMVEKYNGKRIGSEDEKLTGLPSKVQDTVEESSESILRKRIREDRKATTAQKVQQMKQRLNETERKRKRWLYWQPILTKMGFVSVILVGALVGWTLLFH
Nature of the assay: HiBiT Degradation B16F10.4 PTPN2. It is filed as cell-based. The note with it: 24.0 hours.

A word on the DC50: it is the concentration giving 50% degradation. Low values mean degradation at low concentration, high ones degradation only at high concentration.

For the molecule `CC(C)n1c(=O)n(C2CCC(=O)NC2=O)c2ccc(C3CCN(CC(=O)Nc4cccc(CS(=O)(=O)N5CC[C@H](Nc6cccc(-c7sc(C(=O)O)c(OCC(=O)O)c7Cl)c6)CC5(C)C)c4)CC3(F)F)cc21` (stereo partly drawn) [Example 176, 3-(carboxymethoxy)-4-chloro-5-[3-[[(4S)-1-[[3-[[2-[4-[1-(2,6-dioxo-3-piperidyl)-3-isopropyl-2-oxo-benzimidazol-5-yl]-3,3-difluoro-1-piperidyl]acetyl]amino]phenyl]methylsulfonyl]-2,2-dimethyl-4-piperidyl]amino]phenyl]thiophene-2-carboxylic acid], the half-maximal degradation concentration (DC50) (in assay [1]; on PTPN2 (B16F10.4 cells)) was 50 to 200 nM each time.
For `Cn1c(=O)n(C2CCC(=O)NC2=O)c2ccc(C3CCN(C(=O)Nc4cccc(CS(=O)(=O)N5CC[C@H](Nc6cccc(-c7sc(C(=O)O)c(OCC(=O)O)c7Cl)c6)CC5(C)C)c4)CC3)c(Cl)c21` (stereo partly drawn) [Example 207, 3-(carboxymethoxy)-4-chloro-5-[3-[[(4S)-1-[[3-[[4-[4-chloro-1-(2,6-dioxo-3-piperidyl)-3-methyl-2-oxo-benzimidazol-5-yl]piperidine-1-carbonyl]amino]phenyl]methylsulfonyl]-2,2-dimethyl-4-piperidyl]amino]phenyl]thiophene-2-carboxylic acid], the 50% degradation concentration (DC50) (in assay [1]; on PTPN2 (B16F10.4 cells)) was 50 to 200 nM each time.
Regarding `CC1(C)C[C@@H](Nc2cccc(-c3sc(C(=O)O)c(OCC(=O)O)c3Cl)c2)CCN1S(=O)(=O)Cc1cccc(NC(=O)CCCCCCNC(=O)CNc2cccc3c2CN(C2CCC(=O)NC2=O)C3=O)c1` (stereo partly drawn) [Example 18, 3-(carboxymethoxy)-4-chloro-5-(3-(((4S)-1-((3-(7-(2-((2-(2,6-dioxopiperidin-3-yl)-1-oxoisoindolin-4-yl)amino)acetamido)heptanamido)benzyl)sulfonyl)-2,2-dimethylpiperidin-4-yl)amino)phenyl)thiophene-2-carboxylic acid], the DC50 (in assay [1]; at PTPN2 (B16F10.4 cells)) was 200 to 1000 nM throughout.
As to `Cn1c(=O)n(C2CCC(=O)NC2=O)c2ccc(C3CCN(C(=O)Nc4cccc(CS(=O)(=O)N5CC[C@H](Nc6cccc(-c7sc(C(=O)O)c(OCC(=O)O)c7Cl)c6)CC56CC6)c4)CC3)cc21` (stereo partly drawn) [Example 190, 3-(carboxymethoxy)-4-chloro-5-(3-(((7S)-4-((3-(4-(1-(2,6-dioxopiperidin-3-yl)-3-methyl-2-oxo-2,3-dihydro-1H-benzo[d]imidazol-5-yl)piperidine-1-carboxamido)benzyl)sulfonyl)-4-azaspiro[2.5]octan-7-yl)amino)phenyl)thiophene-2-carboxylic acid], the DC50 in assay [1] was less than 50 nM; on PTPN2 (B16F10.4 cells), 50 to 200 nM.
Taken in the same sequence, the figures for `Cn1c(=O)n(C2CCC(=O)NC2=O)c2ccc(C3CCN(C(=O)Nc4cc(CS(=O)(=O)N5CCC(Nc6cccc(-c7sc(C(=O)O)c(OCC(=O)O)c7Cl)c6)CC5(C)C)ccc4F)CC3)cc21` (centres unmarked) [Example 114, 3-(carboxymethoxy)-4-chloro-5-[3-[[1-[[3-[[4-[1-(2,6-dioxo-3-piperidyl)-3-methyl-2-oxo-benzimidazol-5-yl]piperidine-1-carbonyl]amino]-4-fluoro-phenyl]methylsulfonyl]-2,2-dimethyl-4-piperidyl]amino]phenyl]thiophene-2-carboxylic acid] were 50 to 200 nM and less than 50 nM.
On to `CC1(C)C[C@H](Nc2cccc(-c3sc(C(=O)O)c(OCC(=O)O)c3Cl)c2)CCN1S(=O)(=O)Cc1cccc(NC(=O)CCn2cc(CNc3cccc4c3C(=O)N(C3CCC(=O)NC3=O)C4=O)nn2)c1` (stereo partly drawn) [Example 14, 3-(carboxymethoxy)-4-chloro-5-(3-(((4R)-1-((3-(3-(4-(((2-(2,6-dioxopiperidin-3-yl)-1,3-dioxoisoindolin-4-yl)amino)methyl)-1H-1,2,3-triazol-1-yl)propanamido)benzyl)sulfonyl)-2,2-dimethylpiperidin-4-yl)amino)phenyl)thiophene-2-carboxylic acid], for which the figures for the DC50 (in assay [1]; on PTPN2 (B16F10.4 cells)) were 200 to 1000 nM and not below 1000 nM, respectively.
With `CC1(C)C[C@@H](Nc2cccc(-c3sc(C(=O)O)c(OCC(=O)O)c3Cl)c2)CCN1S(=O)(=O)Cc1cccc(NC(=O)C2CN(C(=O)CNc3cccc4c3CN([C@@H]3CCC(=O)NC3=O)C4=O)C2)c1` (single isomer, unassigned) [Example 44a], the DC50 in assay [1] was less than 50 nM; at PTPN2 (B16F10.4 cells), 200 to 1000 nM.
Regarding `Cn1c(=O)n(C2CCC(=O)NC2=O)c2ccc(N3CCC(CCNC(=O)Nc4cccc(CS(=O)(=O)N5CC[C@H](Nc6cccc(-c7sc(C(=O)O)c(OCC(=O)O)c7Cl)c6)CC5(C)C)c4)CC3)cc21` (stereo partly drawn) [Example 174, 3-(carboxymethoxy)-4-chloro-5-[3-[[(4S)-1-[[3-[2-[1-[1-(2,6-dioxo-3-piperidyl)-3-methyl-2-oxo-benzimidazol-5-yl]-4-piperidyl]ethylcarbamoylamino]phenyl]methylsulfonyl]-2,2-dimethyl-4-piperidyl]amino]phenyl]thiophene-2-carboxylic acid], the DC50 in assay [1] is less than 50 nM; on PTPN2 (B16F10.4 cells), 50 to 200 nM.
In the case of `Cn1c(=O)n(C2CCC(=O)NC2=O)c2cccc(C3CCN(C(=O)Nc4cccc(CS(=O)(=O)N5CCC(Nc6cccc(-c7sc(C(=O)O)c(OCC(=O)O)c7Cl)c6)CC5)c4)CC3)c21` (centres unmarked) [Example 52, 3-(carboxymethoxy)-4-chloro-5-[3-[[1-[[3-[[4-[1-(2,6-dioxo-3-piperidyl)-3-methyl-2-oxo-benzimidazol-4-yl]piperidine-1-carbonyl]amino]phenyl]methylsulfonyl]-4-piperidyl]amino]phenyl]thiophene-2-carboxylic acid], the DC50 (in assay [1]; on PTPN2 (B16F10.4 cells)) was 200 to 1000 nM in each case.
Regarding `Cn1c(=O)n(C2CCC(=O)NC2=O)c2ccc(-c3ccc(NC(=O)Nc4cccc(CS(=O)(=O)N5CC[C@H](Nc6cccc(-c7sc(C(=O)O)c(OCC(=O)O)c7Cl)c6)CC5(C)C)c4)cc3)cc21` (stereo partly drawn) [Example 145, 3-(carboxymethoxy)-4-chloro-5-(3-(((4S)-1-((3-(3-(4-(1-(2,6-dioxopiperidin-3-yl)-3-methyl-2-oxo-2,3-dihydro-1H-benzo[d]imidazol-5-yl)phenyl)ureido)benzyl)sulfonyl)-2,2-dimethylpiperidin-4-yl)amino)phenyl)thiophene-2-carboxylic acid], the DC50 (in assay [1]; on PTPN2 (B16F10.4 cells)) was 50 to 200 nM each time.
Turning to `CC1(C)C[C@@H](Nc2cccc(-c3sc(C(=O)O)c(OCC(=O)O)c3Cl)c2)CCN1S(=O)(=O)Cc1cccc(NC(=O)N2CCC(c3ccc4c5c(cccc35)C(=O)N4[C@@H]3CCC(=O)NC3=O)CC2)c1` (single isomer, unassigned) [Example 187a], the DC50 (in assay [1]; on PTPN2 (B16F10.4 cells)) was less than 50 nM in each case.
For `CC1(C)C[C@@H](Nc2cccc(-c3sc(C(=O)O)c(OCC(=O)O)c3Cl)c2)CCN1S(=O)(=O)Cc1cccc(NC(=O)CCN2CCC(Oc3cccc4c3CN(C3CCC(=O)NC3=O)C4=O)CC2)c1` (some centres unmarked) [Example 56], the DC50 (in assay [1]; at PTPN2 (B16F10.4 cells)) was not below 1000 nM in each case.
With `Cn1c(=O)n(C2CCC(=O)NC2=O)c2ccc(C3CCN(C(=O)Nc4cccc(CS(=O)(=O)N5CC[C@H](Nc6cccc(-c7sc(C(=O)O)c(OCC(=O)O)c7Cl)c6F)CC5(C)C)c4)CC3)cc21` (stereo partly drawn) [Example 134, 3-(carboxymethoxy)-4-chloro-5-[3-[[(4S)-1-[[3-[[4-[1-(2,6-dioxo-3-piperidyl)-3-methyl-2-oxo-benzimidazol-S-yl]piperidine-1-carbonyl]amino]phenyl]methylsulfonyl]-2,2-dimethyl-4-piperidyl]amino]-2-fluoro-phenyl]thiophene-2-carboxylic acid], the DC50 (in assay [1]; on PTPN2 (B16F10.4 cells)) was less than 50 nM in each case.

For the origin of these results see patent US20250302815A1, “PROTEIN TYROSINE PHOSPHATASE TARGETING LIGANDS” (CALICO LIFE SCIENCES LLC, priority 2021, published 2025).
